Experimental data: ChEMBL document CHEMBL1821627, “Medicinal chemistry as a conduit for the modulation of quorum sensing” (J Med Chem, 2010)
Where a SMILES comes first, the peptide text is derived from it. Bridges are numbered along the chain shown (N, C = ends). [ ]: non-standard residue; d: D form. NMeS = CN[C@@H](CO)C(=O)O; Mpa = O=C(O)CCS

What was measured:
[1] = system: Chromobacterium violaceum; assay: In vivo inhibition of violacein production in Chromobacterium violaceum; format: functional, organism-based
[2] = Induction of quorum sensing activity in Pseudomonas aeruginosa assessed as maximal induction of LasR-dependent yellow fluorescent protein emission by luminescence assay
[3] = Inhibition of quorum sensing regulated bioluminescence in Vibrio harveyi
[4] = Inhibition of Staphylococcus aureus Quorum sensing system AgrC-II activation after 60 to 90 minutes by beta-lactamase reporter assay; conditions: read-out: IC50
[5] = Inhibition of Staphylococcus aureus Quorum sensing system AgrC-I activation after 60 to 90 minutes by beta-lactamase reporter assay; conditions: read-out: IC50
[6] = Inhibition of autoinducer-stimulated quorum sensing regulated bioluminescence in Vibrio fischeri by luminescence assay; design: species or system Aliivibrio fischeri
[7] = Inhibition of quorum sensing Salmonella Typhimurium by beta-galactosidase transcription assay in presence of 50 uM DPD; design: species or system Salmonella enterica subsp. enterica serovar Typhimurium
[8] = biological target: T1, Autoinducer 1 sensor kinase/phosphatase LuxN (Vibrio harveyi, UniProt P0C5S6); assay: Inhibition of LuxN-dependent bioluminescence in Vibrio harveyi
T1 sequence (P0C5S6 whole entry): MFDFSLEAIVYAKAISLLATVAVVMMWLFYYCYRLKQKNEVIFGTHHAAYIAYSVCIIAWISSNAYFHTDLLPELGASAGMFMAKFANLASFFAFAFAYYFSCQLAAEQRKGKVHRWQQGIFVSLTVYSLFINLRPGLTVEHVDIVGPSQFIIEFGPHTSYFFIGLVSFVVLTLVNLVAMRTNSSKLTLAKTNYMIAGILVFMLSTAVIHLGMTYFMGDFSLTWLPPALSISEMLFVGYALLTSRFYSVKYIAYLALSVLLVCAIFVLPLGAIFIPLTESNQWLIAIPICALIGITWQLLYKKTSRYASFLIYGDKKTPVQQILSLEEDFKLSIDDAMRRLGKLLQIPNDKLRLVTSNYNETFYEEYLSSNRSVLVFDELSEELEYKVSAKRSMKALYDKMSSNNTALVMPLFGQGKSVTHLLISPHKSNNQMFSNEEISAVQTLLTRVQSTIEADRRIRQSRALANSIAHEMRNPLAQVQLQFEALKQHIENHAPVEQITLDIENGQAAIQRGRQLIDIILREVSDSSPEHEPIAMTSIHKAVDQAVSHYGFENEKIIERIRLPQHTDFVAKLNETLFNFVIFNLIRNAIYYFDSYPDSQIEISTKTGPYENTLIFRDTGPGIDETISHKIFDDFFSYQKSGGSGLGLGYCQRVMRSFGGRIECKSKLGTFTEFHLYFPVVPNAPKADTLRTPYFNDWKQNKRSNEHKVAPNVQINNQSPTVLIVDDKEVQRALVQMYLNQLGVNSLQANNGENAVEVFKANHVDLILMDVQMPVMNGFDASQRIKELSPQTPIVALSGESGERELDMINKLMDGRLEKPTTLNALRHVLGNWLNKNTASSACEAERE

[9] = biological target: T2, Transcriptional activator protein LasR (Pseudomonas aeruginosa (strain ATCC 15692 / PAO1 / 1C / PRS 101 / LMG12228), UniProt P25084); assay: Antagonist activity at Pseudomonas aeruginosa LasR receptor assessed as inhibition of bioluminescence by reporter gene assay; format: functional
T2 sequence (P25084 whole entry): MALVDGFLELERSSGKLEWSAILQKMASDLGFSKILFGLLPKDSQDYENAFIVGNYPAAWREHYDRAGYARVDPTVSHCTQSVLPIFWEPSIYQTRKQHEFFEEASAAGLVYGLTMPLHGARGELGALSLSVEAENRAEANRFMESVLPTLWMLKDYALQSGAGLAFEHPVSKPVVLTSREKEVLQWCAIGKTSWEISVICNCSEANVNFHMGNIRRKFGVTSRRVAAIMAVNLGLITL

[10] = biological target: T2, Transcriptional activator protein LasR; assay: Antagonist activity at Pseudomonas aeruginosa LasR receptor expressed in Escherichia coli in presence of 7.5 nM natural auto-inducer 3-oxo-C12-HSL; format: functional
[11] = biological target: T2, Transcriptional activator protein LasR; assay: Agonist activity at Pseudomonas aeruginosa LasR cognate receptor expressed in Escherichia coli harboring pKDT17 assessed as activation of lasB expression by LacZ reporter gene assay; format: functional
[12] = biological target: T3, Transcriptional activator protein LuxR (Aliivibrio fischeri, UniProt P12746); assay: Antagonist activity at Vibrio fischeri luxR receptor in presence of 5 uM 3-oxo-C6-HSL; format: functional
T3 sequence (P12746 whole entry): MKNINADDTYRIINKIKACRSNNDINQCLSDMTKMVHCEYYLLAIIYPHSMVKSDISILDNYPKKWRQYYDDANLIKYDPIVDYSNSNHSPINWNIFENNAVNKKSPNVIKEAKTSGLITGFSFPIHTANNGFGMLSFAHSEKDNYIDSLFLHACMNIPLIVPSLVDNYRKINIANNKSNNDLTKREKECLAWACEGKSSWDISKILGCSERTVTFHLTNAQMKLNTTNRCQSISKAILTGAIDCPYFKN

[13] = Inhibition of quorum sensing in Pseudomonas aeruginosa assessed as inhibition of LasR-dependent yellow fluorescent protein emission by luminescence assay

## O=C(CCCOc1ccc(Cl)cc1)NC1CCSC1=O (stereo not drawn)
[1]
  IC50: 723 nM

## Cc1cc(Br)cc(CNC(=O)c2ccccc2Cl)c1OC(=O)c1ccc(Cl)cc1Cl
[2]
  EC50: 920 nM

## CCN(CC)C(=S)CS(=O)(=O)c1cccs1
[3]
  IC50: 138000 nM

## NC(=S)CS(=O)(=O)c1cccs1
[3]
  IC50: 35000 nM

## O=C(Oc1c(Br)cc(Br)cc1CNC(=O)c1ccccc1Cl)c1ccc(F)cc1
[2]
  EC50: 240 nM

## CC(=O)N[C@H]1CSC(=O)[C@H](Cc2ccccc2)NC(=O)[C@H](CC(C)C)NC(=O)[C@H](CO)NC(=O)[C@H](CO)N(C)C1=O (Ac-C[NMeS]SLF; thioester 1-C)
[4]
  IC50: 7880 nM
[5]
  IC50: 639 nM

## CCOC(=O)CS(=O)(=O)c1ccc(-c2ccccc2)cc1
[3]
  IC50: 8700 nM

## CCCC(=O)CC(=O)N[C@H]1CCSC1=O
[6]
  IC50: 131 nM

## CC(=O)N[C@H]1CSC(=O)[C@H](Cc2ccccc2)NC(=O)[C@H](CC(C)C)NC(=O)[C@H](CO)NC(=O)CNC1=O (Ac-CGSLF; thioester 1-C)
[4]
  IC50: 1160 nM
[5]
  IC50: 189 nM

## O=c1ccc2ccc(O)c(O)c2o1 [DAPHNETIN]
[3]
  IC50: 12000 nM

## Cc1cc(Cl)ccc1OCCCC(=O)NC1CCSC1=O (stereo not drawn)
[1]
  IC50: 1200 nM

## CC(C)C[C@@H]1NC(=O)[C@H](CO)NC(=O)[C@H](CO)NC(=O)CCSC(=O)[C@H](Cc2ccccc2)NC1=O ([Mpa]SSLF; thioester 1-C)
[4]
  IC50: 47300 nM
[5]
  IC50: 1680 nM

## CCCCCCC(=O)C(=O)[C@@H](O)CO
[7]
  IC50: 24900 nM

## CC(C)(c1ccccc1)c1ccc(OCC(=O)NC2CCCC2)cc1
[8]
  IC50: 2400 nM

## NC(=O)CS(=O)(=O)c1cccs1
[3]
  IC50: > 400000 nM

## Oc1cccc(O)c1O [PYROGALLOL]
[3]
  IC50: 2000 nM

## O=C(c1ccc(Cl)cc1)c1ccc(S(=O)(=O)c2ccc(Cl)cc2)cc1
[8]
  IC50: 2600 nM

## Cc1ccc(B(O)O)cc1F
[3]
  IC50: 9000 nM

## O=C(CCCCCCCCCN=C=S)CC(=O)N[C@H]1CCOC1=O
[9]
  IC50: 113000 nM

## O=C(CCCCCCCCCNC(=O)CBr)CC(=O)N[C@H]1CCOC1=O
[9]
  IC50: 100000 nM

## COc1ccc(CNC(=O)C(NS(=O)(=O)c2ccc3nc(C)sc3c2)C(C)C)cc1 (stereo not drawn)
[8]
  IC50: 2900 nM

## O=C(CCc1ccc(Br)cc1)N[C@H]1CCOC1=O
[10]
  IC50: 340 nM

## CCCCCCCC(=O)CC(=O)N[C@H]1CCOC1=O
[11]
  EC50: 15 nM

## O=C(Oc1c(Br)cc(Br)cc1CNC(=O)c1ccccc1[N+](=O)[O-])c1ccccc1Cl
[2]
  EC50: 14 nM

## CCOC(=S)CS(=O)(=O)c1cccs1
[3]
  IC50: 22000 nM

## O=C(CCCCCCCCCCN=C=S)CC(=O)N[C@H]1CCOC1=O
[9]
  IC50: 45200 nM

## O=Cc1ccc(O)c(O)c1O
[3]
  IC50: 4000 nM

## CCOC(=S)CS(=O)(=O)c1ccc(-c2ccccc2)cc1
[3]
  IC50: 5700 nM

## COC(=O)c1ccc(B(O)O)cc1
[3]
  IC50: 5000 nM

## CC(=O)N[C@H]1CSC(=O)[C@H](Cc2ccccc2)NC(=O)[C@H](CC(C)C)NC(=O)[C@H](CO)N(C)C(=O)[C@H](CO)NC1=O (Ac-CS[NMeS]LF; thioester 1-C)
[4]
  IC50: 1050 nM
[5]
  IC50: 319 nM

## CCCCCCCC(=O)N[C@H]1CCOC1=O
[12]
  IC50: 770 nM

## O=C(Nc1ccccc1NC(=O)c1cccc(Cl)c1)c1cccc(Cl)c1
[13]
  IC50: 50000 nM

## CC(=O)N1CCc2ccc(S(=O)(=O)NC(CC(C)C)C(=O)NCc3ccc(Cl)cc3)cc21 (stereo not drawn)
[8]
  IC50: 2700 nM

## O=C(Cc1ccc(I)cc1)N[C@H]1CCOC1=O
[10]
  IC50: 1720 nM
